The subject of one data set is Botrytis cinerea. The data set is described as follows: In vivo preventive test on Botrytis cinerea (grey mould). The following applies: 500 ppm of active ingredient; gherkin plants; 4 to 5 days after contamination. In a few lines:
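Gherkin plants at cotyledon stage Z11 were sprayed with compound, then inoculated 24 h later with Botrytis cinerea spores (50 000 spores per mL in nutrient solution). Plants were kept at 17° C and 90% RH, and percent efficacy versus solvent-treated controls was graded 4 to 5 days after contamination.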

The nature of data set [1]: log P by HPLC on a reversed-phase column (C 18), EEC Directive 79/831 Annex V.A8. It is filed as physicochemical. The following applies: for logP: HPLC on reversed-phase column (C 18), 40° C., 0.1% aqueous formic acid and acetonitrile, linear gradient 10% to 90% acetonitrile. In a few lines: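 Reversed-phase C18 HPLC at 40° C with a linear 10% to 90% acetonitrile gradient against 0.1% aqueous formic acid. Log P is read from retention time by linear interpolation between successive unbranched alkan-2-ones (C3–C16) of known log P. UV spectra from 200 to 400 nm, taken at chromatographic peak maxima, give lambda-max.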

In the next data set the test system is Puccinia recondita. As to the kind of experiment: In vivo preventive test on Puccinia recondita (brown rust on wheat). To be noted: 500 ppm of active ingredient; wheat plants; 12 days after contamination. A digest of the protocol: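 Wheat plants ("Scipion") at 1-leaf stage, grown at 22° C, were sprayed with compound, then inoculated 24 h later with Puccinia recondita spores (100 000 spores per mL). Efficacy (%) graded 12 days after inoculation relative to solvent-treated controls.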

For a further data set, the system named is Alternaria brassicae. The data set is described as follows: In vivo preventive test on Alternaria brassicae (leaf spot on radish). To be noted: 500 ppm of active ingredient; radish plants; 6 days after contamination. The method, then: In Vivo Preventive Test on Alternaria brassicae (Leaf Spot on Radish) […] Radish plants (“Pernod Clair” variety), sown in starter cups on a 50/50 peat soil pozzolana substrate and grown at 17° C., are treated at the cotyledon stage by spraying with the active ingredient prepared as described above. Plants, used as controls, are treated with the mixture of acetone/tween/DMSO/water not containing the active material. After 24 hours, the plants are contaminated by spraying the cotyledons with an aqueous suspension of Alternaria brassicae spores (50 000 spores per mL). The spores are collected from a 15-day-old culture. The contaminated radish plants are incubated at 20° C. and at 100% relative humidity. Grading (% of efficacy) is carried out 6 days after the contamination, in comparison with the control plants.

The test system of another data set is Uromyces appendiculatus. As to the kind of experiment: In vivo preventive test on Uromyces appendiculatus (bean rust). To be noted: 500 ppm of active ingredient; bean plants; 11 days after contamination. In a few lines:
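Saxa bean plants at 2-leaf stage, grown at 24° C., sprayed preventively with compound; 24 h later inoculated with U. appendiculatus spores (150 000 spores per mL). Percent efficacy graded 11 days after inoculation versus solvent-treated controls.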

In another data set the test system is Septoria tritici. The data set is described as follows: In vivo preventive test on Septoria tritici (wheat). To be noted: 500 ppm of active ingredient; wheat plants; 24 days after contamination. A digest of the protocol:
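Scipion wheat grown at 22° C, sprayed at 1-leaf stage (10 cm); controls received acetone/tween/DMSO/water without active. Inoculated 24 h later with S. tritici spores (500 000/mL), held 72 h at 18° C, 100% RH, then 21 days at 90% RH. % efficacy vs controls scored 24 days post-inoculation.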

A further data set deals with Pyrenophora teres. As to the kind of experiment: In vivo preventive test on Pyrenophora teres (barley). The following applies: 500 ppm of active ingredient; barley plants; 14 days after contamination. On the procedure:
In Vivo Preventive Test on Pyrenophora teres (Barley) […] Barley plants (“Plaisant” variety), sown in starter cups on a 50/50 peat soil pozzolana substrate and grown at 22° C., are treated at the 1 leaf stage (10 cm height) by spraying with the active ingredient prepared as described above. Plants, used as controls, are treated with the mixture of acetone/tween/DMSO/water not containing the active material. After 24 hours, the plants are contaminated by spraying the leaves with an aqueous suspension of Pyrenophora teres spores (12 000 spores per mL). The spores are collected from a 12-day-old culture. […] Grading (% of efficacy) is carried out 14 days after the contamination, in comparison with the control plants.

The subject of a further data set is Sphaerotheca fuliginea. The data set is described as follows: In vivo preventive test on Sphaerotheca fuliginea (powdery mildew on cucurbits). The following applies: 500 ppm of active ingredient, gherkin plants, 12 days after contamination. A digest of the protocol: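 Gherkin plants ("Vert petit de Paris") grown at 24 °C were sprayed at cotyledon stage Z11; controls received acetone/tween/DMSO/water without active. Inoculation 24 h later by spraying cotyledons with 100 000 spores/mL. Efficacy (%) graded 12 days post-contamination versus controls.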

The next data set relates to Leptosphaeria nodorum. As to the kind of experiment: In vivo preventive test on Leptosphaeria nodorum (wheat). To be noted: 500 ppm of active ingredient, evaluated 8 days after inoculation. The method, then:
In Vivo Preventive Test on Leptosphaeria nodorum Test (Wheat) [table] To produce a suitable preparation of active compound, 1 part by weight of active compound or active compound combination is mixed with the stated amounts of solvent and emulsifier, and the concentrate is diluted with water to the desired concentration. To test for preventive activity, young plants are sprayed with the preparation of active compound or active compound combination at the stated rate of application. After the spray coating has been dried, the plants are sprayed with a spore suspension of Leptosphaeria nodorum. The plants remain for 48 hours in an incubation cabinet at approximately 20° C. and a relative atmospheric humidity of approximately 100%.

Data set [2] relates to Blumeria graminis f.sp. hordei. The data set is described as follows: In vivo preventive test on Blumeria graminis (barley). The following applies: 500 ppm of active ingredient, evaluated 7 days after inoculation. The method, then:
In Vivo Preventive Test on Blumeria graminis (Barley) [table] To produce a suitable preparation of active compound, 1 part by weight of active compound or active compound combination is mixed with the stated amounts of solvent and emulsifier, and the concentrate is diluted with water to the desired concentration. To test for preventive activity, young plants are sprayed with the preparation of active compound or active compound combination at the stated rate of application. After the spray coating has been dried, the plants are dusted with spores of Blumeria graminis f.sp. hordei.

The term logP denotes a log measure of how a compound divides between an organic and an aqueous phase. As usually defined, the chromatographic logP is lipophilicity estimated from chromatographic retention.

Each structure is given as a SMILES string.

Regarding `Cn1nc(C(F)F)c(C(=O)N(Cc2ccccc2-c2ccoc2)C2CC2)c1F` [I.29], the Efficacy in the data set with Botrytis cinerea was determined as 100%; in the data set on Puccinia recondita, 81%; in the data set with Alternaria brassicae, 82%; in the data set with Uromyces appendiculatus, 100%; in the data set on Septoria tritici, 96%; in the data set on Pyrenophora teres, 93%. The compound further yielded a logP in data set [1] of 3.23.

On to `CC(C)c1ccc(-c2ccn(C)c2)cc1CN(C(=O)c1c(C(F)F)nn(C)c1F)C1CC1` [I.50], for which the Efficacy with Botrytis cinerea amounted to 99%; in the data set with Puccinia recondita it was 100%; in the data set with Alternaria brassicae, 96%; in the data set on Uromyces appendiculatus, 99%; in the data set with Sphaerotheca fuliginea it was 100%; in the data set on Septoria tritici, 97%. Further, the Efficacy with Pyrenophora teres came to 100%. In data set [1], the log partition coefficient (logP) was 3.99.

Take `Cc1csc(-c2ccccc2CN(C(=O)c2c(C(F)F)nn(C)c2F)C2CC2)c1` [I.100, N-cyclopropyl-3-(difluoromethyl)-5-fluoro-1-methyl-N-[2-(4-methyl-2-thienyl)benzyl]-1H-pyrazole-4-carboxamide]: the Efficacy in the data set with Botrytis cinerea is recorded as 80%; with Puccinia recondita, 100%; with Leptosphaeria nodorum, 83%; with Uromyces appendiculatus it was 100%; in the data set on Septoria tritici, 100%; in the data set with Pyrenophora teres, 95%. The Efficacy in data set [2] amounted to 100%. In [1] (logP), this compound had a chromatographic logP of 3.99. Also, the pest or weed control at 500 ppm in the data set on Sphaerotheca fuliginea (Podosphaera fuliginea, 288 h, read-out: Efficacy) is 100%.

As to `Cc1csc(-c2ccc(F)cc2CN(C(=O)c2c(C(F)F)nn(C)c2F)C2CC2)c1` [I.101], the Efficacy stood at 99% in the data set on Botrytis cinerea; 100% in the data set with Puccinia recondita; 83% in the data set on Alternaria brassicae; 100% in the data set with Uromyces appendiculatus; 100% in the data set with Sphaerotheca fuliginea; 100% in the data set with Septoria tritici. In addition, in the data set with Pyrenophora teres, the Efficacy was determined as 95%. The same compound yielded a lipophilicity (logP) in data set [1] of 4.09.

Consider `Cc1cscc1-c1ccc(Cl)cc1CN(C(=O)c1c(C(F)F)nn(C)c1F)C1CC1` [I.104], for which the Efficacy with Botrytis cinerea came to 93%; in the data set on Puccinia recondita, 95%; with Alternaria brassicae it was 83%; with Uromyces appendiculatus, 100%; in the data set with Sphaerotheca fuliginea, 100%; in the data set with Septoria tritici, 88%. In the data set on Pyrenophora teres, this compound returned an Efficacy of 70%. Besides, the logP in [1] turned out to be 4.34.

Compound `Cc1cscc1-c1ccccc1CN(C(=O)c1c(C(F)F)nn(C)c1F)C1CC1` [I.105] had a logP in data set [1] of 3.90. Further, the Efficacy is 100% in the data set with Puccinia recondita; 100% in the data set with Uromyces appendiculatus; 100% with Sphaerotheca fuliginea; 80% in the data set on Septoria tritici; 97% in the data set with Pyrenophora teres; 100% in [2].

Take `Cn1nc(C(F)F)c(C(=O)N(Cc2cc(F)ccc2-c2coc3ccccc23)C2CC2)c1F` [I.129]: the Efficacy in the data set on Botrytis cinerea is 92%; in the data set with Alternaria brassicae, 97%; with Uromyces appendiculatus, 96%; in the data set on Sphaerotheca fuliginea it was 100%; in the data set on Septoria tritici it was 90%; in the data set with Pyrenophora teres, 86%. In data set [1], this compound displayed a lipophilicity (logP) of 4.06.

Turning to `Cn1nc(C(F)F)c(C(=O)N(Cc2ccccc2-c2coc3ccccc23)C2CC2)c1F` [I.131], the Efficacy with Botrytis cinerea is on record as 100%; in the data set with Puccinia recondita it was 75%; in the data set on Alternaria brassicae, 91%; with Sphaerotheca fuliginea it was 98%; with Septoria tritici, 96%; in the data set with Pyrenophora teres, 93%. The same compound yielded a lipophilicity (logP) in data set [1] of 3.96.

The values above are taken from US10125126B2, “N-cycloalkyl-N-[(heterocyclylphenyl)methylene]-(thio)carboxamide derivatives” (BAYER CROPSCIENCE AG, priority 2012, dated 2018).
